Measurements taken from PubChem BioAssay (NCI).
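Protocol summary: plate cells (96-well), add compound at 5 concentrations, incubate 48 h, interpolate endpoints linearly. TGI denotes the concentration required for complete inhibition of growth.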

Key:
Assay in all cases: NCI-60 cell line screen, 48 h
SK-OV-3 ovarian = tested on: SK-OV-3 ovarian
M19-MEL melanoma = tested on: M19-MEL melanoma
SK-MEL-5 melanoma = tested on: SK-MEL-5 melanoma
PC-3 prostate = tested on: PC-3 prostate
CAKI-1 renal = tested on: CAKI-1 renal
RXF-631 renal = tested on: RXF-631 renal
RPMI-8226 leukemia = tested on: RPMI-8226 leukemia
EKVX NSCLC = tested on: EKVX NSCLC
786-0 renal = tested on: 786-0 renal
IGROV1 ovarian = tested on: IGROV1 ovarian
LOX IMVI melanoma = tested on: LOX IMVI melanoma
SW-620 colon = tested on: SW-620 colon
OVCAR-5 ovarian = tested on: OVCAR-5 ovarian
SNB-75 CNS = tested on: SNB-75 CNS
UACC-257 melanoma = tested on: UACC-257 melanoma
HCC-2998 colon = tested on: HCC-2998 colon
SN12C renal = tested on: SN12C renal
NCI-H226 lung = tested on: NCI-H226 lung
NCI-H23 lung = tested on: NCI-H23 lung
SK-MEL-2 melanoma = tested on: SK-MEL-2 melanoma
M14 melanoma = tested on: M14 melanoma
KM12 colon = tested on: KM12 colon
OVCAR-4 ovarian = tested on: OVCAR-4 ovarian
T-47D breast = tested on: T-47D breast
K-562 leukemia = tested on: K-562 leukemia
SR leukemia = tested on: SR leukemia
A498 renal = tested on: A498 renal
BT-549 breast = tested on: BT-549 breast
KM20L2 colon = tested on: KM20L2 colon
SK-MEL-28 melanoma = tested on: SK-MEL-28 melanoma
SF-295 CNS = tested on: SF-295 CNS
SNB-78 CNS = tested on: SNB-78 CNS
OVCAR-8 ovarian = tested on: OVCAR-8 ovarian
HCT-116 colon = tested on: HCT-116 colon
MDA-N = tested on: MDA-N
NCI-H460 lung = tested on: NCI-H460 lung
HL-60(TB) leukemia = tested on: HL-60(TB) leukemia
TK-10 renal = tested on: TK-10 renal
OVCAR-3 ovarian = tested on: OVCAR-3 ovarian
LXFL 529 NSCLC = tested on: LXFL 529 NSCLC
A549 NSCLC = tested on: A549 NSCLC
HT29 colon = tested on: HT29 colon
HOP-18 NSCLC = tested on: HOP-18 NSCLC
NCI/ADR-RES ovarian = tested on: NCI/ADR-RES ovarian
DMS 114 small cell lung = tested on: DMS 114 small cell lung
RXF 393 renal = tested on: RXF 393 renal
ACHN renal = tested on: ACHN renal
HS 578T breast = tested on: HS 578T breast
NCI-H522 lung = tested on: NCI-H522 lung
MCF7 breast = tested on: MCF7 breast
HOP-62 NSCLC = tested on: HOP-62 NSCLC
HCT-15 colon = tested on: HCT-15 colon
SF-268 CNS = tested on: SF-268 CNS
CCRF-CEM leukemia = tested on: CCRF-CEM leukemia
U251 CNS = tested on: U251 CNS
MDA-MB-231 breast = tested on: MDA-MB-231 breast
SF-539 CNS = tested on: SF-539 CNS
HOP-92 NSCLC = tested on: HOP-92 NSCLC
DU-145 prostate = tested on: DU-145 prostate
MALME-3M melanoma = tested on: MALME-3M melanoma
MDA-MB-435 = tested on: MDA-MB-435
COLO 205 colon = tested on: COLO 205 colon
DLD-1 colon = tested on: DLD-1 colon
SNB-19 CNS = tested on: SNB-19 CNS
XF 498 CNS = tested on: XF 498 CNS
UO-31 renal = tested on: UO-31 renal
MOLT-4 leukemia = tested on: MOLT-4 leukemia
UACC-62 melanoma = tested on: UACC-62 melanoma
DMS 273 small cell lung = tested on: DMS 273 small cell lung

CCCCCCCC/C=C1\CCC(CN2CCOCC2)C1=O (stereo not drawn)
TGI (SK-OV-3 ovarian): 34.3 µM | TGI (M19-MEL melanoma): 26.3 µM | TGI (SK-MEL-5 melanoma): 23.2 µM | TGI (PC-3 prostate): 23.7 µM | TGI (CAKI-1 renal): 23.8 µM | TGI (RXF-631 renal): 64.8 µM | TGI (RPMI-8226 leukemia): 4.19 µM | TGI (EKVX NSCLC): 32.9 µM | TGI (786-0 renal): 3.07 µM | TGI (IGROV1 ovarian): 21 µM | TGI (LOX IMVI melanoma): 9.94 µM | TGI (SW-620 colon): 8.39 µM | TGI (OVCAR-5 ovarian): 36.5 µM | TGI (SNB-75 CNS): 23.5 µM | TGI (UACC-257 melanoma): 21.7 µM | TGI (HCC-2998 colon): 26.2 µM | TGI (SN12C renal): 12.5 µM | TGI (NCI-H226 lung): 33.3 µM | TGI (NCI-H23 lung): 24.4 µM | TGI (SK-MEL-2 melanoma): 28.8 µM | TGI (M14 melanoma): 16.7 µM | TGI (KM12 colon): 12.4 µM | TGI (OVCAR-4 ovarian): 31 µM | TGI (T-47D breast): 4.57 µM | TGI (K-562 leukemia): 8.68 µM | TGI (SR leukemia): 5.3 µM | TGI (A498 renal): 29.9 µM | TGI (BT-549 breast): 22.7 µM | TGI (KM20L2 colon): 33 µM | TGI (SK-MEL-28 melanoma): 21.2 µM | TGI (SF-295 CNS): 28.2 µM | TGI (SNB-78 CNS): 31.8 µM | TGI (OVCAR-8 ovarian): 13.8 µM | TGI (HCT-116 colon): 13.6 µM | TGI (MDA-N): 22.4 µM | TGI (NCI-H460 lung): 39.4 µM | TGI (HL-60(TB) leukemia): 14.8 µM | TGI (TK-10 renal): 7.42 µM | TGI (OVCAR-3 ovarian): 14.8 µM | TGI (LXFL 529 NSCLC): 9.2 µM | TGI (A549 NSCLC): 24.7 µM | TGI (HT29 colon): 20.5 µM | TGI (HOP-18 NSCLC): 25.8 µM | TGI (NCI/ADR-RES ovarian): 14.4 µM | TGI (DMS 114 small cell lung): 20.7 µM | TGI (RXF 393 renal): 25.3 µM | TGI (ACHN renal): 30.1 µM | TGI (HS 578T breast): 50.6 µM | TGI (NCI-H522 lung): 6.79 µM | TGI (MCF7 breast): 6.18 µM | TGI (HOP-62 NSCLC): 30 µM | TGI (HCT-15 colon): 9.52 µM | TGI (SF-268 CNS): 21.1 µM | TGI (CCRF-CEM leukemia): 10.9 µM | TGI (U251 CNS): 28 µM | TGI (MDA-MB-231 breast): 4.42 µM | TGI (SF-539 CNS): 14.7 µM | TGI (HOP-92 NSCLC): 33 µM | TGI (DU-145 prostate): 17.9 µM | TGI (MALME-3M melanoma): 24.7 µM | TGI (MDA-MB-435): 15.3 µM | TGI (COLO 205 colon): 17.3 µM | TGI (DLD-1 colon): 8.03 µM | TGI (SNB-19 CNS): 24.6 µM | TGI (XF 498 CNS): 27.5 µM | TGI (UO-31 renal): 16.6 µM | TGI (MOLT-4 leukemia): 5.35 µM | TGI (UACC-62 melanoma): 12.6 µM

C#CC1(O)CCC2[C@@H]3CCc4cc(Oc5nc(F)nc(-c6c7ccccc7c(SCC)n6CCC)n5)ccc4C3CC[C@@]21C (stereo partly drawn)
TGI (SK-OV-3 ovarian): > 100 µM | TGI (M19-MEL melanoma): > 100 µM | TGI (SK-MEL-5 melanoma): > 100 µM | TGI (RXF-631 renal): > 100 µM | TGI (RPMI-8226 leukemia): > 100 µM | TGI (EKVX NSCLC): > 100 µM | TGI (786-0 renal): > 100 µM | TGI (IGROV1 ovarian): > 100 µM | TGI (LOX IMVI melanoma): > 100 µM | TGI (SW-620 colon): > 100 µM | TGI (OVCAR-5 ovarian): > 100 µM | TGI (UACC-257 melanoma): > 100 µM | TGI (HCC-2998 colon): > 100 µM | TGI (NCI-H226 lung): 50.1 µM | TGI (NCI-H23 lung): 63.9 µM | TGI (SK-MEL-2 melanoma): > 100 µM | TGI (M14 melanoma): > 100 µM | TGI (KM12 colon): > 100 µM | TGI (OVCAR-4 ovarian): > 100 µM | TGI (K-562 leukemia): > 100 µM | TGI (SR leukemia): > 100 µM | TGI (A498 renal): > 100 µM | TGI (KM20L2 colon): > 100 µM | TGI (SK-MEL-28 melanoma): > 100 µM | TGI (SF-295 CNS): > 100 µM | TGI (SNB-78 CNS): > 100 µM | TGI (OVCAR-8 ovarian): > 100 µM | TGI (HCT-116 colon): > 100 µM | TGI (NCI-H460 lung): > 100 µM | TGI (HL-60(TB) leukemia): > 100 µM | TGI (TK-10 renal): > 100 µM | TGI (OVCAR-3 ovarian): > 100 µM | TGI (LXFL 529 NSCLC): > 100 µM | TGI (A549 NSCLC): > 100 µM | TGI (HT29 colon): > 100 µM | TGI (HOP-18 NSCLC): > 100 µM | TGI (DMS 114 small cell lung): > 100 µM | TGI (RXF 393 renal): 55.4 µM | TGI (ACHN renal): > 100 µM | TGI (HOP-62 NSCLC): > 100 µM | TGI (HCT-15 colon): > 100 µM | TGI (SF-268 CNS): > 100 µM | TGI (CCRF-CEM leukemia): > 100 µM | TGI (U251 CNS): > 100 µM | TGI (DMS 273 small cell lung): > 100 µM | TGI (SF-539 CNS): > 100 µM | TGI (HOP-92 NSCLC): > 100 µM | TGI (MALME-3M melanoma): > 100 µM | TGI (COLO 205 colon): > 100 µM | TGI (DLD-1 colon): > 100 µM | TGI (XF 498 CNS): > 100 µM | TGI (UO-31 renal): > 100 µM | TGI (MOLT-4 leukemia): > 100 µM | TGI (UACC-62 melanoma): > 100 µM

CCOc1ccc(NCC2CC/C(=C\c3ccccc3OC)C2=O)cc1 (stereo not drawn)
TGI (SK-OV-3 ovarian): 31.1 µM | TGI (M19-MEL melanoma): 26.3 µM | TGI (SK-MEL-5 melanoma): 30.3 µM | TGI (CAKI-1 renal): 25.4 µM | TGI (RXF-631 renal): 42.5 µM | TGI (RPMI-8226 leukemia): 3.91 µM | TGI (EKVX NSCLC): 31.9 µM | TGI (786-0 renal): 8.3 µM | TGI (IGROV1 ovarian): 25.5 µM | TGI (LOX IMVI melanoma): 18.6 µM | TGI (SW-620 colon): 14.3 µM | TGI (OVCAR-5 ovarian): 32.5 µM | TGI (SNB-75 CNS): 31.1 µM | TGI (UACC-257 melanoma): 20 µM | TGI (HCC-2998 colon): 25.8 µM | TGI (SN12C renal): 19.4 µM | TGI (NCI-H226 lung): 34.1 µM | TGI (NCI-H23 lung): 34.7 µM | TGI (SK-MEL-2 melanoma): 35.2 µM | TGI (M14 melanoma): 12.1 µM | TGI (KM12 colon): 9.1 µM | TGI (OVCAR-4 ovarian): 12.8 µM | TGI (K-562 leukemia): > 27.5 µM | TGI (A498 renal): 33.9 µM | TGI (KM20L2 colon): 28.4 µM | TGI (SK-MEL-28 melanoma): 24.1 µM | TGI (SF-295 CNS): 32.3 µM | TGI (SNB-78 CNS): 44.3 µM | TGI (OVCAR-8 ovarian): 13 µM | TGI (HCT-116 colon): 14.5 µM | TGI (HL-60(TB) leukemia): > 23.7 µM | TGI (TK-10 renal): 26.7 µM | TGI (OVCAR-3 ovarian): 17.1 µM | TGI (LXFL 529 NSCLC): 6.5 µM | TGI (A549 NSCLC): 35.6 µM | TGI (HT29 colon): 7.78 µM | TGI (HOP-18 NSCLC): 28.8 µM | TGI (DMS 114 small cell lung): 28.2 µM | TGI (RXF 393 renal): 21.4 µM | TGI (ACHN renal): 27.8 µM | TGI (NCI-H522 lung): 4.36 µM | TGI (HOP-62 NSCLC): > 57.8 µM | TGI (HCT-15 colon): 7.82 µM | TGI (SF-268 CNS): 20.8 µM | TGI (CCRF-CEM leukemia): 7.22 µM | TGI (U251 CNS): 27.8 µM | TGI (DMS 273 small cell lung): 6.76 µM | TGI (SF-539 CNS): 23.9 µM | TGI (HOP-92 NSCLC): 34 µM | TGI (MALME-3M melanoma): 27.6 µM | TGI (COLO 205 colon): 5.59 µM | TGI (DLD-1 colon): 13.6 µM | TGI (SNB-19 CNS): 30 µM | TGI (UO-31 renal): 26.2 µM | TGI (MOLT-4 leukemia): 20.9 µM | TGI (UACC-62 melanoma): 25.5 µM
